What follows are compounds tested on S. Typhimurium PhoP-promoter GFP reporter counterscreen, fluorescence, 4 h (assay: S. Typhimurium GFP fluorescence dose response in modified counterscreen for PhoP regulon inhibitor project (AID 1981)).
For `COC(=O)C1C(O)C(C)C(O)C(C)/C=C\C=C(/C)C(=O)Nc2c(C)c(OC(C)=O)c3c(c2O)C(=O)C(C)=C2OCOC(=C23)/C(C)=C/C(C)(O)C(O)C(C)C1O` (stereo unspecified), the IC50 was 23.5 µM. Compound `CCCCCOc1ccc(Br)cc1CSC(=N)N` has an IC50 of 41.4 µM. With `C/C(=N\NC(=O)c1cc2ccccc2cc1O)c1ccccn1` the IC50 was 31.9 µM. With `CCn1cc(C(=O)O)c(=O)c2cc(F)c(N3CCN(C(=O)Nc4ccccc4)CC3)cc21` the IC50 was 27.7 µM. In the case of `CN(C)c1ccc(O)c2c1CC1CC3[C@@H](N(C)C)C(=O)C(C(N)=O)=C(O)[C@]3(O)C(=O)C1=C2O` (stereo partly specified), the IC50 is reported as 1.54 µM. Work on `CCCCCCCCCn1c2c(c(=N)c3c1CCC3)CCC2` yielded an IC50 of 84.5 µM. In the case of `CCOC(=O)c1ccc(-c2ccc(C3Nc4ccccc4C(=O)N3O)o2)cc1` (stereo unspecified), the IC50 is reported as 112 µM. For `O=C(NNC(=O)c1cnccn1)c1ccc(Cl)cc1`, the IC50 was 89.5 µM. With `Cc1c2ccncc2c(C)c2c1[nH]c1ccccc12` the IC50 was 69.7 µM. With `Oc1ccc(/C=N/Nc2nccnc2Cl)c(O)c1` the IC50 was 63.2 µM. `Cc1ccc(Nc2nc(N)c3ccccc3n2)cc1Cl` was tested, and the IC50 was 74.4 µM. For `O=Cc1ccc(O)c2ncccc12`, the IC50 was 6.78 µM. Work on `CCN1/C(=C/C=C/c2sc3ccccc3[n+]2CC)Sc2ccccc21` yielded an IC50 of 37.2 µM. For `c1cnc2c(c1)ccc1cccnc12`, the IC50 was 40 µM. In the case of `O=C(CSc1ccccn1)N/N=C/c1cc([N+](=O)[O-])ccc1O`, the IC50 is reported as 45.6 µM. `C[C@H]1COc2c(N3CCN(C)CC3)c(F)cc3c(=O)c(C(=O)O)cn1c23` was tested, and the IC50 was < 0.23 µM. `Cc1ccc(Nc2c3c(nc4ccccc24)CCC3)cc1` was tested, and the IC50 was 146 µM. With `O=C(Nc1ccccc1)Nc1ccc(Cl)c([N+](=O)[O-])c1` the IC50 was 39.2 µM. For `CNc1nc(NCc2ccccc2)c2ccccc2n1`, the IC50 was 96.7 µM. `Oc1c(C(c2ccccn2)N2CCOCC2)ccc2cccnc12` (stereo unspecified) gave an IC50 of 118 µM. Compound `O=C(N/N=C/c1cc(Cl)ccc1O)c1cccnc1` has an IC50 of 35 µM. Work on `CCOc1cc(/C=N/N=C(N)N)ccc1OCc1ccc(Cl)cc1` yielded an IC50 of 56.8 µM. `CCn1cc(C(=O)O)c(=O)c2cc3c(cc21)OCO3` was tested, and the IC50 was 67.5 µM. `O=C(N/N=C/c1cccs1)c1cccs1` gave an IC50 of 81.4 µM. `CCCCCCNC(=O)c1cn(CC)c2cc(N3CCN(C)CC3)c(F)cc2c1=O` gave an IC50 of 32 µM. With `C/C(=N\Nc1ncnc2sc(C)c(C)c12)c1ccccn1` the IC50 was 33.4 µM. `O=c1[nH][nH]c(-c2ccccc2O)c1C(C[N+](=O)[O-])c1ccc(Br)cc1` (stereo unspecified) was tested, and the IC50 was 66.5 µM. Compound `Nc1ncn([C@@H]2O[C@H](CO)[C@@H](O)[C@H]2O)c(=O)n1` has an IC50 of 19.4 µM. `N=C(N)SCc1cn(-c2ccccc2)nc1-c1ccc(Br)cc1` gave an IC50 of 36.1 µM. `NC(N)=NN=C1CCCCCCCCCCC1` was tested, and the IC50 was 81.7 µM. `Cc1ccc(C(C[N+](=O)[O-])c2c(-c3ccccc3O)[nH][nH]c2=O)cc1` (stereo unspecified) was tested, and the IC50 was 39.2 µM. `Oc1ccc(Cl)cc1Cc1cc(Cl)ccc1O` gave an IC50 of 57 µM. Work on `CC(C)NC1=C(Cl)C(=O)c2ccccc2C1=O` yielded an IC50 of 59.4 µM. For `CC[C@@H](C)[C@H](CNC)NC[C@@H](Cc1cccc2ccccc12)NCCc1cccc(C(F)(F)F)c1`, the IC50 was 39.9 µM. With `CCn1cc(C(=O)O)c(=O)c2cc(F)c(N3CCNCC3)cc21` the IC50 was 0.89 µM. Compound `CC(=O)NC(c1cccc([N+](=O)[O-])c1)c1ccc2cccnc2c1O` (stereo unspecified) has an IC50 of 72.5 µM. `C=C1c2cccc(O)c2C(O)=C2C(=O)[C@]3(O)C(O)=C(C(N)=O)C(=O)[C@@H](N(C)C)[C@@H]3[C@@H](O)[C@H]12` gave an IC50 of 0.39 µM. Work on `Cc1conc1NC(c1cccs1)c1ccc2cccnc2c1O` (stereo unspecified) yielded an IC50 of 36.8 µM. `Clc1ccc(CNCc2cccs2)cc1Cl` was tested, and the IC50 was 123 µM. With `OCCN1CCN(Cc2cc(Cl)c3cccnc3c2O)CC1` the IC50 was 104 µM. Compound `Nc1[nH]c(=O)ncc1F` has an IC50 of 10.6 µM. In the case of `COc1cc(C(=O)Oc2c(CN3CCOCC3)cc(Cl)c3cccnc23)cc(OC)c1OC`, the IC50 is reported as 113 µM. Compound `Cc1ccc(Nc2cc(C)nn2-c2nc(C)cc(=O)[nH]2)cc1` has an IC50 of 12.4 µM. Work on `CCCCCCCCCCOC(=O)Cn1c(COc2ccc(Cl)cc2)[n+](C)c2ccccc21` yielded an IC50 of 26.7 µM. With `CCCCCCCCCCOC(=O)Cn1c(COc2cccc(C)c2)[n+](C)c2ccccc21` the IC50 was 28.5 µM. `CCCC(=O)NC(c1ccc(C)cc1)c1ccc2cccnc2c1O` (stereo unspecified) was tested, and the IC50 was 54.7 µM. With `C/C(=N\Nc1nc2ccccc2[nH]1)c1ccccn1` the IC50 was 29.3 µM. Compound `Cc1scc(C(=O)N/N=C/c2ccc([N+](=O)[O-])o2)c1C` has an IC50 of 68.7 µM. In the case of `Cc1cc(C(=O)N/N=C/c2ccc(O)c(O)c2O)c(C)n1-c1ccccc1`, the IC50 is reported as 30 µM. `O=c1c(O)cccc2cc(O)c(O)c(O)c12` gave an IC50 of 18.2 µM. `Oc1c(I)cc(Cl)c2cccnc12` showed an IC50 of 70.7 µM. In the case of `CCCOc1ccc(C(=O)NC(=S)N2CCN(c3cc4c(cc3F)c(=O)c(C(=O)O)cn4CC)CC2)cc1`, the IC50 is reported as 18.6 µM. Compound `Oc1ccccc1NCC(O)Cn1ccc2ccccc21` (stereo unspecified) has an IC50 of 130 µM. `CCN1/C(=C/C=C/C=C/c2sc3ccccc3[n+]2CC)Sc2ccccc21` showed an IC50 of 23.6 µM. `Cc1[nH]n(-c2ccccc2)c(=O)c1/C=N/Nc1nncc(-c2ccccc2)n1` was tested, and the IC50 was 22.1 µM. Work on `CCCCN(CCCC)C(=O)c1cn(CC)c2cc(N3CCN(C)CC3)c(F)cc2c1=O` yielded an IC50 of 14.2 µM.
